# From patent US5292742A, “Angiotensin II receptor blocking 2,3,6 substituted quinazolinones” (American Cyanamid Company, priority 1993, dated 1994)
# Where “and” joins values, the source holds several entries; their conditions need not be identical. Equal values may be shown once.
# Tested on: angiotensin II (AII) vasopressor response
# Test: AII challenge: inhibition of angiotensin II vasopressor response in conscious spontaneously hypertensive rats
# Format: in vivo, rat (Okamoto-Aoki SHR)
# Settings: 3 mg/kg IV; for % Inhibition (angiotensin blockage) of AII vasopressor response / Average Change (increase in systolic blood pressure after AII): SHR n = 2; for Change (increase in systolic blood pressure after AII), individual rat / Response After AII (systolic blood pressure), individual rat / Control Before AII (systolic blood pressure), individual rat: individual SHR
# Excerpt: By administering a compound of this invention to a rat, and then challenging with angiotensin II, a blockage of the vasopressor response is realized.
# Conscious Male Okamoto-Aoki SHR, 16-20 weeks old, weighing approximately 330 g are purchased from Charles River Labs (Wilmington, Mass.). Conscious rats are restrained in a supine position with elastic tape. The area at the base of the tail is locally anesthetized by subcutaneous infiltration with 2% procaine. The ventral caudal artery and vein are isolated, and a cannula made of polyethylene (PE) 10-20 tubing (fused together by heat) is passed into the lower abdominal aorta and vena cava, respectively. The cannula is secured, heparinized (1,000 I.U./ml), sealed and the wound is closed. The animals are placed in plastio restraininq cages in an upright position. The cannula is attached to a Statham P23Db pressure transducer, and pulsatile blood pressure is recorded to 10-15 minutes with a Gould Brush recorder. (Chan et al., (Drug Development Res., 18:75-94, 1989).
# Angiotensin II (human sequence, Sigma Chem. Co., St. Louis, Mo.) of 0.05 and 0.1 mcg/kg i.v. is injected into all rats (predosing response). Then a test compound, vehicle or a known angiotensin II antagonist is administered i.v., i.p. or orally to each set of rats. The two doses of angiotensin II are given to each rat again at 30, 60, 90, 120, 180, 240 and 300 minutes post dosing the compound or vehicle. The vasopressor response of angiotensin II is measured for the increase in systolic blood pressure in mmHg. The percentage of antagonism or blockade of the vasopressor response of angiotensin II by a compound is calculated using the vasopressor response (increase in systolic blood pressure) of angiotensin II of each rat predosing the compound as 100%. A compound is considered active if at 30 mg/kg i.v. it antagonized at least 50% of the response.
# [1] = AII 0.05 mcg/kg IV, 30 min post dose
# [2] = AII 0.05 mcg/kg IV, 60 min post dose
# [3] = AII 0.05 mcg/kg IV, 90 min post dose
# [4] = AII 0.05 mcg/kg IV, 120 min post dose
# [5] = AII 0.05 mcg/kg IV, 180 min post dose
# [6] = AII 0.05 mcg/kg IV, 240 min post dose
# [7] = AII 0.05 mcg/kg IV, 300 min post dose
# [8] = AII 0.1 mcg/kg IV, 30 min post dose
# [9] = AII 0.1 mcg/kg IV, 60 min post dose
# [10] = AII 0.1 mcg/kg IV, 90 min post dose
# [11] = AII 0.1 mcg/kg IV, 120 min post dose
# [12] = AII 0.1 mcg/kg IV, 180 min post dose
# [13] = AII 0.1 mcg/kg IV, 240 min post dose
# [14] = AII 0.1 mcg/kg IV, 300 min post dose
compound,measurement,setting,value
"CCCCc1nc2ccc(C3=NN4CCCC4C3)cc2c(=O)n1Cc1ccc(-c2ccccc2-c2nnn[nH]2)cc1 (stereo not shown) [Example 10, 2-Butyl-6-(3a,4,5,6-tetrahydro-3H-pyrrolo[1,2-b]-pyrazol-2-yl)-3-[[2'-(1H-tetrazol-5-yl)[1,1'-biphenyl]-4-yl]methyl]-4(3H)-quinazolinone]",% Inhibition (angiotensin blockage) of AII vasopressor response,[1],61%
same,Average Change (increase in systolic blood pressure after AII),[1],13.5 mmHg
same,"Change (increase in systolic blood pressure after AII), individual rat",[1],12 mmHg and 15 mmHg
same,% Inhibition (angiotensin blockage) of AII vasopressor response,[2],7%
same,Average Change (increase in systolic blood pressure after AII),[2],32.5 mmHg
same,"Change (increase in systolic blood pressure after AII), individual rat",[2],30 mmHg and 35 mmHg
same,% Inhibition (angiotensin blockage) of AII vasopressor response,[3],43%
same,Average Change (increase in systolic blood pressure after AII),[3],20 mmHg
same,"Change (increase in systolic blood pressure after AII), individual rat",[3],30 mmHg and 10 mmHg
same,% Inhibition (angiotensin blockage) of AII vasopressor response,[4],43%
same,Average Change (increase in systolic blood pressure after AII),[4],20 mmHg
same,"Change (increase in systolic blood pressure after AII), individual rat",[4],25 mmHg and 15 mmHg
same,% Inhibition (angiotensin blockage) of AII vasopressor response,[5],36%
same,Average Change (increase in systolic blood pressure after AII),[5],22.5 mmHg
same,"Change (increase in systolic blood pressure after AII), individual rat",[5],25 mmHg and 20 mmHg
same,% Inhibition (angiotensin blockage) of AII vasopressor response,[6],50%
same,Average Change (increase in systolic blood pressure after AII),[6],17.5 mmHg
same,"Change (increase in systolic blood pressure after AII), individual rat",[6],20 mmHg and 15 mmHg
same,% Inhibition (angiotensin blockage) of AII vasopressor response,[7],7%
same,Average Change (increase in systolic blood pressure after AII),[7],32.5 mmHg
same,"Change (increase in systolic blood pressure after AII), individual rat",[7],35 mmHg and 30 mmHg
same,% Inhibition (angiotensin blockage) of AII vasopressor response,[8],55%
same,Average Change (increase in systolic blood pressure after AII),[8],22.5 mmHg
same,"Change (increase in systolic blood pressure after AII), individual rat",[8],20 mmHg and 25 mmHg
same,% Inhibition (angiotensin blockage) of AII vasopressor response,[9],55%
same,Average Change (increase in systolic blood pressure after AII),[9],22.5 mmHg
same,"Change (increase in systolic blood pressure after AII), individual rat",[9],25 mmHg and 20 mmHg
same,% Inhibition (angiotensin blockage) of AII vasopressor response,[10],50%
same,Average Change (increase in systolic blood pressure after AII),[10],25 mmHg
same,"Change (increase in systolic blood pressure after AII), individual rat",[10],25 mmHg
same,% Inhibition (angiotensin blockage) of AII vasopressor response,[11],50%
same,Average Change (increase in systolic blood pressure after AII),[11],25 mmHg
same,"Change (increase in systolic blood pressure after AII), individual rat",[11],30 mmHg and 20 mmHg
same,% Inhibition (angiotensin blockage) of AII vasopressor response,[12],45%
same,Average Change (increase in systolic blood pressure after AII),[12],27.5 mmHg
same,"Change (increase in systolic blood pressure after AII), individual rat",[12],30 mmHg and 25 mmHg
same,% Inhibition (angiotensin blockage) of AII vasopressor response,[13],50%
same,Average Change (increase in systolic blood pressure after AII),[13],25 mmHg
same,"Change (increase in systolic blood pressure after AII), individual rat",[13],25 mmHg
same,% Inhibition (angiotensin blockage) of AII vasopressor response,[14],30%
same,Average Change (increase in systolic blood pressure after AII),[14],35 mmHg
same,"Change (increase in systolic blood pressure after AII), individual rat",[14],45 mmHg and 25 mmHg
same,"Response After AII (systolic blood pressure), individual rat","after AII 0.05 mcg/kg IV, 30 min post dose",242 mmHg and 255 mmHg
same,"Response After AII (systolic blood pressure), individual rat","after AII 0.05 mcg/kg IV, 60 min post dose",255 mmHg and 270 mmHg
same,"Response After AII (systolic blood pressure), individual rat","after AII 0.05 mcg/kg IV, 90 min post dose",255 mmHg and 250 mmHg
same,"Response After AII (systolic blood pressure), individual rat","after AII 0.05 mcg/kg IV, 120 min post dose",250 mmHg and 230 mmHg
same,"Response After AII (systolic blood pressure), individual rat","after AII 0.05 mcg/kg IV, 180 min post dose",235 mmHg
same,"Response After AII (systolic blood pressure), individual rat","after AII 0.05 mcg/kg IV, 240 min post dose",230 mmHg and 235 mmHg
same,"Response After AII (systolic blood pressure), individual rat","after AII 0.05 mcg/kg IV, 300 min post dose",250 mmHg and 245 mmHg
same,"Response After AII (systolic blood pressure), individual rat","after AII 0.1 mcg/kg IV, 30 min post dose",250 mmHg and 260 mmHg
same,"Response After AII (systolic blood pressure), individual rat","after AII 0.1 mcg/kg IV, 60 min post dose",255 mmHg and 260 mmHg
same,"Response After AII (systolic blood pressure), individual rat","after AII 0.1 mcg/kg IV, 90 min post dose",265 mmHg and 260 mmHg
same,"Response After AII (systolic blood pressure), individual rat","after AII 0.1 mcg/kg IV, 120 min post dose",265 mmHg and 240 mmHg
same,"Response After AII (systolic blood pressure), individual rat","after AII 0.1 mcg/kg IV, 180 min post dose",245 mmHg and 250 mmHg
same,"Response After AII (systolic blood pressure), individual rat","after AII 0.1 mcg/kg IV, 240 min post dose",250 mmHg and 240 mmHg
same,"Response After AII (systolic blood pressure), individual rat","after AII 0.1 mcg/kg IV, 300 min post dose",255 mmHg and 250 mmHg
same,"Control Before AII (systolic blood pressure), individual rat","before AII 0.05 mcg/kg IV, 30 min post dose",230 mmHg and 240 mmHg
same,"Control Before AII (systolic blood pressure), individual rat","before AII 0.05 mcg/kg IV, 60 min post dose",225 mmHg and 235 mmHg
same,"Control Before AII (systolic blood pressure), individual rat","before AII 0.05 mcg/kg IV, 90 min post dose",225 mmHg and 240 mmHg
same,"Control Before AII (systolic blood pressure), individual rat","before AII 0.05 mcg/kg IV, 120 min post dose",225 mmHg and 215 mmHg
same,"Control Before AII (systolic blood pressure), individual rat","before AII 0.05 mcg/kg IV, 180 min post dose",210 mmHg and 215 mmHg
same,"Control Before AII (systolic blood pressure), individual rat","before AII 0.05 mcg/kg IV, 240 min post dose",210 mmHg and 220 mmHg
same,"Control Before AII (systolic blood pressure), individual rat","before AII 0.05 mcg/kg IV, 300 min post dose",215 mmHg
same,"Control Before AII (systolic blood pressure), individual rat","before AII 0.1 mcg/kg IV, 30 min post dose",230 mmHg and 235 mmHg
same,"Control Before AII (systolic blood pressure), individual rat","before AII 0.1 mcg/kg IV, 60 min post dose",230 mmHg and 240 mmHg
same,"Control Before AII (systolic blood pressure), individual rat","before AII 0.1 mcg/kg IV, 90 min post dose",240 mmHg and 235 mmHg
same,"Control Before AII (systolic blood pressure), individual rat","before AII 0.1 mcg/kg IV, 120 min post dose",235 mmHg and 220 mmHg
same,"Control Before AII (systolic blood pressure), individual rat","before AII 0.1 mcg/kg IV, 180 min post dose",215 mmHg and 225 mmHg
same,"Control Before AII (systolic blood pressure), individual rat","before AII 0.1 mcg/kg IV, 240 min post dose",225 mmHg and 215 mmHg
same,"Control Before AII (systolic blood pressure), individual rat","before AII 0.1 mcg/kg IV, 300 min post dose",210 mmHg and 225 mmHg
